US10962528B2, “Blue fluorescent protein monomers and uses thereof” (WISYS TECHNOLOGY FOUNDATION, INC., priority 2015, dated 2021)

Legend:
[1] = biological target: T1, Sander vitreus (blue walleye) Sandercyanin fluorescent protein (SFP), wild type, SEQ ID NO:1 (recombinant without signal peptide SEQ ID NO:31) (Sander vitreus, UniProt A0A1D5B367); assay: Binding of biliverdin to (apo) Sandercyanin by fluorescence titration
T1 construct: apo monomer, tetramer with biliverdin
T1 sequence (A0A1D5B367 1-170): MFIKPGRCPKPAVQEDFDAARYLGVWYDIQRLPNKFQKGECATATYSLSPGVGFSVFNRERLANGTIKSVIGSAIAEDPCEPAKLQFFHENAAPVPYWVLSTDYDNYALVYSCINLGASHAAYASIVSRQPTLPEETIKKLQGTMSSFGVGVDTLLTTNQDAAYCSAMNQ
Experimental: FIGS. 11C-11D (C) Titration of apo-SFP (20 uM) with BV IXα measured at 675 nm with λex=375 nm (green) and 630 nm (red). (D) Photo-bleaching kinetics of Sandercyanin and free-biliverdin (BV).
Addition of the biliverdin to apo-protein results in red-shift in the fluorescence of Sandercyanin to near infra-red (NIR) region. Molar extinction coefficient of holoSFP measured in phosphate buffer of pH 7.4 at 375 nm and 630 nm are 21,000 M^−1 cm^−1 and 13,500 M^−1 cm^−1 respectively and quantum yield is determined to be 0.016. Further, fluorescence spectra is widely spread into the infrared region with minimal overlap with the excitation spectra. We examined the affinity of apoSFP towards BV using fluorescence and determined Kd of 6 μM.
Native SFP was extracted and purified from the mucus of Blue Walleye from Northwest Ontario by various chromatographic methods as described previously (Chi Li et al). A putative amino acid sequence of SFP was determined from crystal structure of the native protein, confirmed and corrected after whole genome sequencing of Blue Walleye. […]
All experiments were performed with purified SFP samples (apo and holo forms) at pH 7.5 and room temperature. UV-Visible absorbance spectra of native and recombinant SFP were recorded from 800 to 200 nm with ultraspec 2100 pro spectrophotometer from Amersham Biosciences. CD spectra were measured on JASCO J-815 Spectropolarimeter. […]

[2] = biological target: Sander vitreus Sandercyanin fluorescent protein (SFP) variant SFP-V71E (mSFP1), SEQ ID NO:2 (Sander vitreus, UniProt A0A1D5B367, V52E); assay: Biliverdin binding of monomeric SFP variant
Experimental: (§1) All experiments were performed with purified SFP samples (apo and holo forms) at pH 7.5 and room temperature. UV-Visible absorbance spectra of native and recombinant SFP were recorded from 800 to 200 nm with ultraspec 2100 pro spectrophotometer from Amersham Biosciences. CD spectra were measured on JASCO J-815 Spectropolarimeter. Steady state fluorescence, excitation, binding and photobleaching studies were monitored on Horiba Jobin Yvon Fluoromax-4 fluorimeter. Data analysis were done using Origin6 and Origin8 software. Hydrogen was exchanged with Deuterium by increasing concentrations of D2O to a standard protein concentration. Deuteriated proteins were prepared in the same buffer, incubated for 15 minutes, and monitored for spectral properties.
(§2) All SFP variants were expressed using E. coli BL21*(DE3) cells. Briefly, each of the SFP monomer mutant genes in pET21a vector were transformed into BL21*(DE3) cells and selected on a LB agar plate containing ampicillin (100 μg/mL). For large scale expression, about 5 mL of the overnight grown primary culture was inoculated into 500 mL of LB medium containing 100 μg/mL ampicillin. Cells were grown at 37° C. until OD600 nm reached to 0.6-0.7. Then, cells were induced using 0.2 mM isopropyl-thiogalactoside (IPTG). Post-induction cells were grown at 20° C. for 20 hours. Thereafter, cells were harvested by centrifugation at 6000 rpm for 10 minutes. Bacterial cell pellet containing SFP as insoluble protein was resuspended in a lysis buffer (20 mM Tris-HCl, pH 7.5, 10 mM EDTA and 1% TritonX). […] Thus, refolded purified SFP was checked using an analytical gel filtration column for oligomerization state and biliverdin (BV) binding by UV-visible absorbance and fluorescence spectroscopy (FIGS. 1A-1D).
(§3) Characterization of monoSFP Variants—MonoSFP variants were characterized by size-exclusion chromatography during purification of the proteins. […] They have far-red to near infra-red fluorescence with large Stokes shift. […] To test this, we performed detergent (Triton X-100) assays with the monoSFPs and measured absorbance and fluorescence spectra. […]

[3] = biological target: Sander vitreus Sandercyanin fluorescent protein (SFP) variant SFP-L135E (mSFP2), SEQ ID NO:3 (Sander vitreus, UniProt A0A1D5B367, L116E); assay: Biliverdin binding of monomeric SFP variant
Experimental: as §1, §2, §3

[4] = biological target: Sander vitreus Sandercyanin fluorescent protein (SFP) variant SFP-A137E, SEQ ID NO:4 (Sander vitreus, UniProt A0A1D5B367, A118E); assay: Biliverdin binding of monomeric SFP variant
Experimental: as §1, §2, §3

[5] = biological target: T2, Sander vitreus Sandercyanin fluorescent protein (SFP) variant, Phe 55 to alanine (Sander vitreus, UniProt A0A1D5B367, F36A); assay: Biliverdin binding of SFP mutant; settings: Phe 55 to alanine mutation
T2 construct: preparation not described for this mutant
T2 sequence (A0A1D5B367 entry or part of it F36A): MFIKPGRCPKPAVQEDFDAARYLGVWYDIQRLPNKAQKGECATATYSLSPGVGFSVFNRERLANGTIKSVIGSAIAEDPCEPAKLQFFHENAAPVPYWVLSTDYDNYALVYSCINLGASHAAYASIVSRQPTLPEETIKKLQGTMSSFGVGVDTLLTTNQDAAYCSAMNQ

Sequence of Sander vitreus Sandercyanin fluorescent protein (SFP) variant SFP-L135E (mSFP2), SEQ ID NO:3 (A0A1D5B367 entry or part of it L116E): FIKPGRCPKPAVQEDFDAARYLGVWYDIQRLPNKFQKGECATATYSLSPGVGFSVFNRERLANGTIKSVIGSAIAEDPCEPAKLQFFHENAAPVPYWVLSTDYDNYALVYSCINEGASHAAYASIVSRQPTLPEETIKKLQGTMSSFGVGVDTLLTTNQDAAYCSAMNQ
Sequence of Sander vitreus Sandercyanin fluorescent protein (SFP) variant SFP-V71E (mSFP1), SEQ ID NO:2 (A0A1D5B367 entry or part of it V52E): as the sequence (A0A1D5B367 entry or part of it L116E) above, with V51E, E115L counted along it
Sequence of Sander vitreus Sandercyanin fluorescent protein (SFP) variant SFP-A137E, SEQ ID NO:4 (A0A1D5B367 entry or part of it A118E): as the sequence (A0A1D5B367 entry or part of it L116E) above, with E115L, A117E counted along it

Work on `C=CC1=C(C)/C(=C/C2=NC(=C\c3[nH]c(/C=C4\NC(=O)C(C)=C4C=C)c(C)c3CCC(=O)O)/C(CCC(=O)O)=C2C)NC1=O` [BV, Biliverdin IXα] yielded a Kd ([1]; Table 4, wild-type SFP (tetramer)) of 5 to 6 µM, a Kd ([1]; affinity of apoSFP towards BV using fluorescence, pH 7.5, room temperature) of 6 µM and a Kd [2] of 4 to 6 µM. For the same compound, the Kd [3] was 4 to 12 µM, the Kd [4] was 3 to 5 µM and the BV binding [5] was “abolished BV binding”.
